Measured values from US7659244B2, “Rapamycin peptides conjugates: synthesis and uses thereof” (Quest Pharmatech, Inc., priority 2004, dated 2010).
Where two headings read alike, the source gives them in different places.

Experiments:
[1] = read-out: Inhibition of H^3 Thymidine uptake (IC50 in nM), SK-N-SH cells, 96 hours incubation
[2] = read-out: Inhibition of H^3 Thymidine uptake (IC50 in nM), SKOV-3 cells, 96 hours incubation
[3] = read-out: Inhibition of H^3 Thymidine uptake (IC50 in nM), A431 cells, 96 hours incubation
[4] = read-out: Inhibition of H^3 Thymidine uptake (IC50 in nM), SKMEL-2 cells, 96 hours incubation
[5] = read-out: Inhibition of H^3 Thymidine uptake (IC50 in nM), Lncap cells, 96 hours incubation
[6] = read-out: Inhibition of H^3 Thymidine uptake (IC50 in nM), MCF-7 cells, 96 hours incubation
[7] = read-out: Inhibition of H^3 Thymidine uptake (IC50 in nM), D341 cells, 96 hours incubation
[8] = read-out: Inhibition of H^3 Thymidine uptake (IC50 in nM), OVCAR-3 cells, 96 hours incubation
[9] = read-out: Inhibition of H^3 Thymidine uptake (IC50 in nM), LS174T cells, 96 hours incubation

| SMILES | IC50 (SK-N-SH; 96 h) [nM] | IC50 (SKOV-3; 96 h) [nM] | IC50 (A431; 96 h) [nM] | IC50 (SKMEL-2; 96 h) [nM] | IC50 (Lncap; 96 h) [nM] | IC50 (MCF-7; 96 h) [nM] | IC50 (D341; 96 h) [nM] | IC50 (OVCAR-3; 96 h) [nM] | IC50 (LS174T; 96 h) [nM] | IC50 (SK-N-SH; [1]) [nM] | IC50 (SKOV-3; [2]) [nM] | IC50 (A431; [3]) [nM] | IC50 (SKMEL-2; [4]) [nM] | IC50 (Lncap; [5]) [nM] | IC50 (MCF-7; [6]) [nM] | IC50 (D341; [7]) [nM] | IC50 (OVCAR-3; [8]) [nM] | IC50 (LS174T; [9]) [nM] |
| --- | --- | --- | --- | --- | --- | --- | --- | --- | --- | --- | --- | --- | --- | --- | --- | --- | --- | --- |
| CC[C@H](C)[C@H](NC(=O)[C@@H](CC(C)C)NC(=O)O[C@@H]1CC[C@@H](C[C@@H](C)[C@@H]2CC(=O)[C@H](C)/C=C(\C)[C@@H](O)[C@@H](OC)C(=O)[C@H](C)C[C@H](C)/C=C/C=C/C=C(\C)[C@@H](OC)C[C@@H]3CC[C@@H](C)[C@@](O)(O3)C(=O)C(=O)N3CCCC[C@H]3C(=O)O2)C[C@H]1OC)C(=O)N[C@H](CO)Cc1ccccc1 [Compound 7d, Rapamycin-42-O-ester-(NH-D-Leu-L-Ile-S-Phe-CH2OH)] | 137 | 94.3 | 12700 | 358 | 198 | 52.2 | 140 | 343 | – | – | – | – | – | – | – | – | – | – |
| CC[C@H](C)[C@H](NC(=O)[C@H](CC(C)C)NC(=O)[C@H](C)NC(=O)[C@@H](Cc1cn(C(c2ccccc2)(c2ccccc2)c2ccccc2)cn1)NC(=O)O[C@@H]1CC[C@@H](C[C@@H](C)[C@@H]2CC(=O)[C@H](C)/C=C(\C)[C@@H](O)[C@@H](OC)C(=O)[C@H](C)C[C@H](C)/C=C/C=C/C=C(\C)[C@@H](OC)C[C@@H]3CC[C@@H](C)[C@@](O)(O3)C(=O)C(=O)N3CCCC[C@H]3C(=O)O2)C[C@H]1OC)C(=O)N[C@@H](CO)Cc1ccccc1 [Compound 7g] | – | 595 | – | 946 | – | 2440 | 937 | – | 3680 | – | – | – | – | – | – | – | – | – |
| CO[C@H]1C[C@@H]2CC[C@@H](C)[C@@](O)(O2)C(=O)C(=O)N2CCCC[C@H]2C(=O)O[C@H]([C@H](C)C[C@@H]2CC[C@@H](OC(=O)N[C@H](CO)Cc3ccccc3)[C@H](OC)C2)CC(=O)[C@H](C)/C=C(\C)[C@@H](O)[C@@H](OC)C(=O)[C@H](C)C[C@H](C)/C=C/C=C/C=C/1C [Compound 7j, Rapamycin-42-O-ester-(S) (−)-2-amino-3-phenyl-1-propanol] | – | – | – | – | – | – | – | – | – | 80 | 55.9 | 506 | 157 | 166 | 15.3 | 106 | 264 | – |
| COC1CC2CCC(C)C(O)(O2)C(=O)C(=O)N2CCCCC2C(=O)OC(C(C)CC2CCC(OC(=O)NC(CO)CC(C)C)C(OC)C2)CC(=O)C(C)C=C(C)C(O)C(OC)C(=O)C(C)CC(C)C=CC=CC=C1C [Compound 7s, Rapamycin-42-O-ester-(R)-(−)-2-amino-4-methyl pentanol] | – | – | – | – | – | – | – | – | – | 97.3 | 93.6 | 625 | 154 | 189 | 15.6 | 103 | 355 | – |
| CO[C@H]1C[C@@H]2CC[C@@H](C)[C@@](O)(O2)C(=O)C(=O)N2CCCC[C@H]2C(=O)O[C@H]([C@H](C)C[C@@H]2CC[C@@H](OC(=O)CCC(=O)N[C@H](CO)Cc3ccccc3)[C@H](OC)C2)CC(=O)[C@H](C)/C=C(\C)[C@@H](O)[C@@H](OC)C(=O)[C@H](C)C[C@H](C)/C=C/C=C/C=C/1C [Compound 7v, Rapamycin-42-O-(3-carboxypropanoyl) ester-(S) (−)-2-amino-3-phenyl-1-propanol] | – | – | – | – | – | – | – | – | – | 18.8 | 10.4 | 1030 | 81 | 48.3 | 5.52 | 15 | 95.5 | – |
| COC(=O)C(NC(=O)O[C@@H]1CC[C@@H](C[C@@H](C)[C@@H]2CC(=O)[C@H](C)/C=C(\C)[C@@H](O)[C@@H](OC)C(=O)[C@H](C)C[C@H](C)/C=C/C=C/C=C(\C)[C@@H](OC)C[C@@H]3CC[C@@H](C)[C@@](O)(O3)C(=O)C(=O)N3CCCC[C@H]3C(=O)O2)C[C@H]1OC)C(=O)OC [Compound 7w] | – | – | – | – | – | – | – | – | – | 164 | 26.5 | – | 378 | 83.5 | 103 | – | – | 859 |
| CO[C@H]1C[C@@H]2CC[C@@H](C)[C@@](O)(O2)C(=O)C(=O)N2CCCC[C@H]2C(=O)O[C@H]([C@H](C)C[C@@H]2CC[C@@H](OC(=O)NC3C(=O)OC(C)(C)OC3=O)[C@H](OC)C2)CC(=O)[C@H](C)/C=C(\C)[C@@H](O)[C@@H](OC)C(=O)[C@H](C)C[C@H](C)/C=C/C=C/C=C/1C [Compound 7x] | – | – | – | – | – | – | – | – | – | 11.3 | 3.4 | – | 113 | 3.32 | 7.09 | – | – | 433 |
